14 compounds from patent US10064853B2, “Compounds for use in methods for treating diseases or conditions mediated by protein disulfide isomerase” (Beth Israel Deaconess Medical Center, Inc., priority 2013, dated 2018) can be followed below.

Where two headings read alike, the source gives them in different places.

One data set concerns the target human PDI (Homo sapiens (Human), UniProt P07237). Kind of data set: Insulin turbidimetric assay of PDI reductase activity. The data set is classed as biochemical. On the procedure: (§1) PDI inhibitors were evaluated in an insulin turbidimetric assay to assess their ability to block the reductase activity of PDI. The assay measured the aggregation of insulin chains by monitoring absorbance at 650 nm as previously described in Jasuja, R. et al. Protein disulfide isomerase inhibitors constitute a new class of antithrombotic agents. J Clin Invest 122, 2104-2113 (2012) (hereinafter “Jasija”). Cleavage of disulfide bonds within insulin by PDI results in aggregation of insulin. When PDI is inhibited, there is a decrease in aggregation of insulin, and therefore a decrease in absorbance signal at 650 nm. Recombinant human PDI expressed and purified from E. coli., mixed with bovine insulin (Sigma), and added to assay plates. The reaction mixture for insulin reduction assays contained 100 mM potassium phosphate, pH 7.4; 0.75 mM DTT, 2 mM EDTA, 0.1 mM bovine insulin, and 0.8 μM purified human PDI in a total volume of 135 μl in a 96 well plate. The progress of the reaction was monitored for 30 min at 23° C. Indicated inhibitors or control buffer was added prior to the addition of enzyme at the concentrations indicated. PDI activity in the presence of compound was determined by the formula, PDI activity (%)={OD(compound+PDI+DTT)−OD(DTT)}/{OD(PDI+DTT)−OD(DTT)}×100 % enzyme inhibition={1−(ODmax(compound+enzyme)/ODmax(buffer control+enzyme)}
IC50 values were calculated using non-linear regression analysis.

The target of the next data set is Thioredoxin reductase. Kind of data set: Insulin turbidimetric assay counter screen, thioredoxin reductase. It is filed as biochemical. On the procedure: as §1
(§2) The insulin turbidimetric assay was used with alternative thiol isomerases to evaluate the specificity of inhibitors, as shown in Tables B and C. Other oxidoreductases used to evaluate the specificity of inhibitors include ERp5, thioredoxin (TR), and thioredoxin reductase (TRR).
(In general: The purpose of a counterscreen is to sort out artefacts and off-target activity.)

A further data set has as its target ERp57 (Homo sapiens (Human), UniProt P30101). As to the kind of experiment: Insulin turbidimetric assay counter screen, ERp57. The data set is classed as biochemical. To be noted: Table B; read-out: Counter Screen: Selectivity against other thiol isomerases IC50 ERp57. On the procedure: as §1, §2
The target of a further data set is Thioredoxin (Homo sapiens (Human), UniProt P10599). As to the kind of experiment: Insulin turbidimetric assay counter screen, thioredoxin. The data set is classed as biochemical. On the procedure: as §1, §2
The target of another data set is ERp5 (Homo sapiens (Human), UniProt Q15084). As to the kind of experiment: Insulin turbidimetric assay counter screen, ERp5. The data set is classed as biochemical. On the procedure:
as §1, §2

Data set [1] is described as follows: Stability of PDI inhibitors in human plasma. The data set is classed as in vitro ADME. The following applies: 1 μM, room temperature. On the procedure: (§3) The stability of PDI inhibitors was measured in the presence of PBS pH 7.4 with 1% DMSO. PDI inhibitors were added to plasma (in triplicate at 1 μM) on six separate plates and allowed to equilibrate at room temperature for 48 hours. At each time point (0, 2, 4, 8, 24, and 48 hours), one plate was removed and an aliquot was taken out from each well and analyzed by UPLC-MS.

The nature of data set [2]: Stability of PDI inhibitors in mouse plasma. It is filed as in vitro ADME. The following applies: 1 μM, room temperature. On the procedure:
as §3

Another data set deals with washed platelets. As to the kind of experiment: Platelet aggregation (SFLLRN-induced, washed platelets). It is filed as cell-based. To be noted: inhibition of platelet aggregation; compounds at 30 μM, 30 minutes at 37° C., SFLLRN-initiated. On the procedure:
Platelet Rich Plasma (PRP) was prepared from whole blood obtained from individual donors and drawn into Acid Citrate Dextrose (ACD) at 15% of total volume. PGE-1 was added to a final concentration of 0.15 µM to maintain the resting state. PRP was spun at 1000 g×10 minutes and the supernatant was discarded. The platelet pellet was resuspended in Modified HEPES-Tyrodes buffer pH 7.3. The 1× washed platelets were incubated for 20 minutes at 37° C. until they were in a quiescent state. The above washing procedure was then repeated. The 2× washed platelets were allowed to rest for 20 minutes at 37° C. Platelets were then counted and the concentration of platelets in suspension was adjusted to 200,000 platelets/µL. The 2× washed platelets were treated with compounds at 30 µM, and were incubated for 30 minutes at 37° C. Following incubation, platelets were added to a cuvette and stirred at 37° C. in a Chrono-Log Platelet Aggregometer. In order to initiate aggregation, a concentration of SFLLRN, the thrombin receptor activating peptide, sufficient to elicit 60-70% light transmittance was added to the cuvette. Therefore, a range of 2-3 µM SFLLRN was used in order to accommodate small differences in sensitivity to SFLLRN between individual donors. Prior to reading, the aggregometer was scaled so that unstimulated, washed platelets are set to 0% light transmittance, and buffer alone with no platelets is set to 100% light transmittance. The light transmittance of each sample was recorded as a measure of aggregation. Data were recorded as a single point representing maximum aggregation in the presence of compound and were compared to samples exposed to vehicle (DMSO) alone. See Jasuja

Setting [3] is: Table A, average of two independent experiments, read-out: PDI_Inhibition_ IC50.
Setting [4] is: Table B, read-out: PDI_ Inhibition_ IC50.
Where [5] appears, read: insulin reductase assay, recombinant human PDI, read-out: PDI_Inhibition_ IC50.
The mark [6] stands for this setting: Table B, read-out: Counter Screen: Selectivity against other thiol isomerases IC50 Thioredoxin reductase.
Setting [7] is: Table C, read-out: Specif. (ERp5, TR, TRR): TRR.
The mark [8] stands for this setting: Table B, read-out: Counter Screen: Selectivity against other thiol isomerases IC50 Thioredoxin.
The mark [9] stands for this setting: Table C, read-out: Specif. (ERp5, TR, TRR): TR.
The mark [10] stands for this setting: Table B, read-out: Counter Screen: Selectivity against other thiol isomerases IC50 ERp5.
[11] abbreviates: Table C, read-out: Specif. (ERp5, TR, TRR): ERp5.

Sequence of ERp57 (P30101 25-505, species assumed): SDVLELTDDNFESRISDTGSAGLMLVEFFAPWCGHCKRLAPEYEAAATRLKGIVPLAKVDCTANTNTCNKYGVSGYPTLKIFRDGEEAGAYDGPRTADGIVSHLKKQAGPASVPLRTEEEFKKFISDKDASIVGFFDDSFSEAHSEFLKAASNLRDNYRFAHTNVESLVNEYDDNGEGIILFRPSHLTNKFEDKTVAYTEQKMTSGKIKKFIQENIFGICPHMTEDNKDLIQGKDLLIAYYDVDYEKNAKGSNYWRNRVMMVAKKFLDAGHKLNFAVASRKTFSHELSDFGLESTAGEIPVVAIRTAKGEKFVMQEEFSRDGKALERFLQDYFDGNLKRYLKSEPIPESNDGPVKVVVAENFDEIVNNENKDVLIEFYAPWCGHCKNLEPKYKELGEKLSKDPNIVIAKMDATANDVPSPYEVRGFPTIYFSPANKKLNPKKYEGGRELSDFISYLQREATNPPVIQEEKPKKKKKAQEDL
Sequence of Thioredoxin (P10599 whole entry, species assumed): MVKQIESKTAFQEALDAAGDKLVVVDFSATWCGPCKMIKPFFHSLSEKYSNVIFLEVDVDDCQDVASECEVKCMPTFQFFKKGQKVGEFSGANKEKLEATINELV
Sequence of ERp5 (Q15084 20-440, species assumed): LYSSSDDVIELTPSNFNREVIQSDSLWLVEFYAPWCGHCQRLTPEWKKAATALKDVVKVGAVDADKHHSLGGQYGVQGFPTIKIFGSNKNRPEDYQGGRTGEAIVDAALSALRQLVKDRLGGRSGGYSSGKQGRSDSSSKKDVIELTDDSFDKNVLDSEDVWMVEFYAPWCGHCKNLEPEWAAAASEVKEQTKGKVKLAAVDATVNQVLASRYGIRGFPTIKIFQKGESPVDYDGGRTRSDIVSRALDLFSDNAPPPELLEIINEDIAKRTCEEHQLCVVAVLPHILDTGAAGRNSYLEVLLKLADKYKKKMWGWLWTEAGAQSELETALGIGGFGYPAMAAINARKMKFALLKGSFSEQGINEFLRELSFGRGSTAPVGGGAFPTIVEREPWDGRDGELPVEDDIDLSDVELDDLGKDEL
Sequence of human PDI (P07237 18-508): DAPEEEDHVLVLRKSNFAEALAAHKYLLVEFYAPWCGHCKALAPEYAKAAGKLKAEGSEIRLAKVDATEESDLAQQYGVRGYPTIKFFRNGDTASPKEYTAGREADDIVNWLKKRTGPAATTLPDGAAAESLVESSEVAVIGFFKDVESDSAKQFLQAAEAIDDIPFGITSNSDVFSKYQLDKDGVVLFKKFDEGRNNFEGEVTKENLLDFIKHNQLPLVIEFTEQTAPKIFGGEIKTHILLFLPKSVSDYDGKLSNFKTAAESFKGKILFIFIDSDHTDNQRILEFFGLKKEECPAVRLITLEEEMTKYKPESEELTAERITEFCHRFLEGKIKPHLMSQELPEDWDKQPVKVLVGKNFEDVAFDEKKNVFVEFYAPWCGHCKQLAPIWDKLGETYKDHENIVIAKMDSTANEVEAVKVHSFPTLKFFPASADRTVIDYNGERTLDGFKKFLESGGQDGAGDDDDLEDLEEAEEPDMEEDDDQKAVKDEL

`CCOC(=O)C1(CCOc2ccccc2)CCN(Cc2ccc(O)c(Cl)c2)CC1` [Compound 1, Ethyl 1-(3-chloro-4-hydroxybenzyl)-4-(2-phenoxyethyl)piperidine-4-carboxylate]: the IC50 at human PDI (setting [3]) is 0.25 µM; on human PDI (setting [4]), 0.25 µM; on human PDI (Table C, PDI, read-out: IC50), 0.3 to 0.6 µM; at human PDI (setting [5]) it was 0.25 µM; on Thioredoxin reductase (setting [6]), over 30 µM; at Thioredoxin reductase (setting [7]), over 30 µM. For the same compound, the IC50 at ERp57, at Thioredoxin (setting [8]), on Thioredoxin (setting [9]), at ERp5 (setting [10]) and on ERp5 (setting [11]) was over 30 µM throughout. For the same compound, in data set [1], the Plasma stability human stood at 100%. In data set [2], this compound gave a Plasma stability mouse of 5.3%. Also, the “Platelet Aggregation” value in the data set on washed platelets is recorded as 25-50%.
Regarding `CCOC(=O)C1(CCOc2ccccc2)CCN(Cc2ccc(OC)c(Cl)c2)CC1` [Compound 4], the IC50 at human PDI (setting [3]), at human PDI (setting [4]), on human PDI (setting [5]), at Thioredoxin reductase (setting [6]), on ERp57 and at Thioredoxin (setting [8]) was over 30 µM throughout.
With `C=CCOc1ccc(CN2CCC(CCOc3ccccc3)(C(=O)OCC)CC2)cc1Cl` [Compound 5], the IC50 on human PDI (setting [3]) and at human PDI (setting [5]) was over 30 µM in each case.
In the case of `CCOC(=O)C1(CCOc2ccccc2)CCN(Cc2ccc(OC)cc2)CC1` [Compound 6], the IC50 at human PDI (setting [3]) and on human PDI (setting [5]) was over 30 µM each time.
With `CCOC(=O)C1(CCOc2ccccc2)CCN(Cc2ccc(O)cc2)CC1` [Compound 7], the IC50 on human PDI (setting [4]) is 15 µM; at Thioredoxin reductase (setting [6]), over 30 µM; at ERp57, over 30 µM; on Thioredoxin (setting [8]) it was over 30 µM.
Consider `CCOC(=O)C1(CCOc2ccccc2)CCN(Cc2ccc3[nH]c(=O)oc3c2)CC1` [Compound 8], for which the IC50 at human PDI (setting [3]) and at human PDI (setting [5]) was over 30 µM in each case.
Turning to `CCOC(=O)C1(CCOc2ccccc2)CCN(C(=O)c2ccc(O)c(Cl)c2)CC1` [Compound 9], the IC50 at human PDI (setting [3]) was 2.25 µM; at human PDI (setting [4]), 2.25 µM; at human PDI (Table C, PDI, read-out: IC50), 2.25 µM; at human PDI (setting [5]), 2.25 µM; on Thioredoxin reductase (setting [6]), over 30 µM; on Thioredoxin reductase (setting [7]), over 30 µM. The IC50 on ERp57, at Thioredoxin (setting [8]), at Thioredoxin (setting [9]) and at ERp5 (setting [11]) was over 30 µM in each case. In data set [1], the Plasma stability human is on record as 100%. The same compound had a Plasma stability mouse in data set [2] of 100%. Moreover, in the data set with washed platelets, the “Platelet Aggregation” value was found to be 100%.
As to `CC(C)OC(=O)C1(CCOc2ccccc2)CCN(Cc2ccc(O)c(Cl)c2)CC1` [Compound 13], the IC50 on human PDI (setting [3]) is 0.85 µM; on human PDI (setting [4]), 0.85 µM; on human PDI (Table C, PDI, read-out: IC50), 0.85 µM; on human PDI (setting [5]), 0.85 µM; at Thioredoxin reductase (setting [6]) it was over 30 µM; on Thioredoxin reductase (setting [7]), over 30 µM. Besides, the IC50 on ERp57, at Thioredoxin (setting [8]), at Thioredoxin (setting [9]), on ERp5 (setting [10]) and at ERp5 (setting [11]) was over 30 µM each time. Besides, the Plasma stability human in data set [1] worked out at 97.9%. This compound registered a Plasma stability mouse in data set [2] of 75.3%. In addition, the “Platelet Aggregation” value in the data set with washed platelets is given as 97%.
As for `CC(C)(C)OC(=O)C1(CCOc2ccccc2)CCN(Cc2ccc(O)c(Cl)c2)CC1` [Compound 14], the IC50 is 0.65 µM on human PDI (setting [3]); 0.65 µM on human PDI (setting [4]); 0.65 µM on human PDI (Table C, PDI, read-out: IC50); 0.65 µM at human PDI (setting [5]); over 30 µM at Thioredoxin reductase (setting [6]); over 30 µM at Thioredoxin reductase (setting [7]). Also, the IC50 on ERp57, at Thioredoxin (setting [8]), at Thioredoxin (setting [9]), on ERp5 (setting [10]) and on ERp5 (setting [11]) was over 30 µM each time. Besides, in data set [1], the Plasma stability human is 98.7%. This compound had a Plasma stability mouse in data set [2] of 95.6%. The “Platelet Aggregation” value in the data set on washed platelets came out at 100%.
With `CCNC(=O)C1(CCOc2ccccc2)CCN(Cc2ccc(O)c(Cl)c2)CC1` [Compound 15], the IC50 at human PDI (setting [3]) and at human PDI (setting [5]) was over 30 µM each time.
Regarding `CCN(C)C(=O)C1(CCOc2ccccc2)CCN(Cc2ccc(O)c(Cl)c2)CC1` [Compound 16], the IC50 was 3 µM at human PDI (setting [3]); 3 µM on human PDI (setting [4]); 3 µM at human PDI (setting [5]); over 30 µM on Thioredoxin reductase (setting [6]); over 30 µM on ERp57; over 30 µM at Thioredoxin (setting [8]).
Turning to `O=C(NC1CCCC1)C1(CCOc2ccccc2)CCN(Cc2ccc(O)c(Cl)c2)CC1` [Compound 17], the IC50 is 4 µM on human PDI (setting [3]); 4 µM on human PDI (setting [4]); 4 µM on human PDI (setting [5]); over 30 µM at Thioredoxin reductase (setting [6]); over 30 µM at ERp57; over 30 µM at Thioredoxin (setting [8]).
Turning to `O=C(N1CCCC1)C1(CCOc2ccccc2)CCN(Cc2ccc(O)c(Cl)c2)CC1` [Compound 18], the IC50 on human PDI (setting [3]) and at human PDI (setting [5]) was over 30 µM in each case.
In the case of `O=C(Nc1ccccc1)C1(CCOc2ccccc2)CCN(Cc2ccc(O)c(Cl)c2)CC1` [Compound 19], the IC50 is 22.5 µM at human PDI (setting [3]); 22.5 µM at human PDI (setting [4]); 22.5 µM on human PDI (setting [5]); over 30 µM on Thioredoxin reductase (setting [6]); over 30 µM on ERp57; over 30 µM at Thioredoxin (setting [8]).
